From PubChem BioAssay AID248 (DTP/NCI, 2004)
Where “and” joins values, the source holds several entries; their conditions need not be identical. Equal values may be shown once. Toxic doses and inconclusive results are not listed. Rule as the data show it: active = T/C of 150% or more; inactive = T/C below 125%.

Test system: L1210 leukemia ip in BDF1 mice, survival T/C
Assay: NCI In Vivo Anticancer Drug Screen. Data for tumor model L1210 Leukemia (intraperitoneal) in B6D2F1 (BDF1) mice
Details: endpoint: mean survival time, higher = longer survival
Outline: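 Antitumor effect is assessed in tumor-bearing animals. Survival in the compound arm is compared with a vehicle-dosed control arm and expressed as their quotient.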

[1] = dose: 100.0 mg/kg/injection, schedule: Q01DX009 (ip), vehicle: saline
[2] = dose: 150.0 mg/kg/injection, schedule: Q01DX001 (ip), vehicle: Klucel (hydroxypropylcellulose) (HPC)
[3] = dose: 200.0 mg/kg/injection, schedule: Q01DX009 (ip), vehicle: saline
[4] = dose: 100.0 mg/kg/injection, schedule: Q01DX009 (ip), vehicle: saline with Tween-80
[5] = dose: 200.0 mg/kg/injection, schedule: Q01DX009 (ip), vehicle: saline with Tween-80
[6] = dose: 100.0 mg/kg/injection, schedule: Q04DX002 (ip), vehicle: Klucel (hydroxypropylcellulose) (HPC)
[7] = dose: 200.0 mg/kg/injection, schedule: Q04DX002 (ip), vehicle: Klucel (hydroxypropylcellulose) (HPC)
[8] = dose: 100.0 mg/kg/injection, schedule: Q01DX001 (ip), vehicle: saline
[9] = dose: 200.0 mg/kg/injection, schedule: Q01DX001 (ip), vehicle: saline
[10] = dose: 400.0 mg/kg/injection, schedule: Q01DX001 (ip), vehicle: saline
[11] = dose: 100.0 mg/kg/injection, schedule: Q04DX003 (ip), vehicle: saline with Tween-80
[12] = dose: 50.0 mg/kg/injection, schedule: Q04DX003 (ip), vehicle: saline with Tween-80
[13] = dose: 200.0 mg/kg/injection, schedule: Q04DX003 (ip), vehicle: saline with Tween-80
[14] = dose: 100.0 mg/kg/injection, schedule: Q01DX001 (ip), vehicle: saline with Tween-80
[15] = dose: 200.0 mg/kg/injection, schedule: Q01DX001 (ip), vehicle: saline with Tween-80
[16] = dose: 400.0 mg/kg/injection, schedule: Q01DX001 (ip), vehicle: saline with Tween-80
[17] = dose: 400.0 mg/kg/injection, schedule: Q01DX009 (ip), vehicle: saline with Tween-80
[18] = dose: 400.0 mg/kg/injection, schedule: Q04DX003 (ip), vehicle: saline with Tween-80
[19] = dose: 100.0 mg/kg/injection, schedule: Q01DX001 (ip), vehicle: Klucel (hydroxypropylcellulose) (HPC)
[20] = dose: 200.0 mg/kg/injection, schedule: Q01DX001 (ip), vehicle: Klucel (hydroxypropylcellulose) (HPC)

Measured: T/C

CN(C)NCCC#N
inactive: dose: 66.0 mg/kg/injection, schedule: Q01DX009 (ip), vehicle: saline 118 % of control | dose: 75.0 mg/kg/injection, schedule: Q01DX009 (ip), vehicle: saline 116 % of control | dose: 100.0 mg/kg/injection, schedule: Q01DX009 (ip), vehicle: saline sonified 98 % of control | [1] 116 % of control | dose: 200.0 mg/kg/injection, schedule: Q01DX009 (ip), vehicle: saline sonified 111 % of control

CC(=O)Nc1c(C)c(NC(C)=O)c(C)c(NC(C)=O)c1C
inactive: dose: 75.0 mg/kg/injection, schedule: Q01DX001 (ip), vehicle: Klucel (hydroxypropylcellulose) (HPC) 90 % of control | dose: 75.0 mg/kg/injection, schedule: Q01DX009 (ip), vehicle: Klucel (hydroxypropylcellulose) (HPC) 94 % of control | [2] 101 % of control | dose: 300.0 mg/kg/injection, schedule: Q01DX001 (ip), vehicle: Klucel (hydroxypropylcellulose) (HPC) 92 % of control

CCCCCCOC(=O)N1CCN(c2ccccc2)CC1
inactive: dose: 50.0 mg/kg/injection, schedule: Q01DX009 (ip), vehicle: saline 106 % of control | [1] 92 % of control | [3] 90 % of control

Clc1cc(Cl)c(SSc2cc(Cl)c(Cl)cc2Cl)cc1Cl
inactive: dose: 50.0 mg/kg/injection, schedule: Q01DX009 (ip), vehicle: saline with Tween-80 102 % of control | [4] 98 % of control | [5] 98 % of control

O=C1OCC/C1=C\NCCCCCCCCN/C=C1\CCOC1=O
inactive: [6] 97 % of control | [7] 108 % of control | dose: 400.0 mg/kg/injection, schedule: Q04DX002 (ip), vehicle: Klucel (hydroxypropylcellulose) (HPC) 97 % of control

CC(=O)NC(CC(N)=O)C(=O)O (configuration not stated)
inactive: dose: 100.0 mg/kg/injection, schedule: Q04DX002 (ip), vehicle: saline 96 % of control | dose: 200.0 mg/kg/injection, schedule: Q04DX002 (ip), vehicle: saline 99 % of control | dose: 400.0 mg/kg/injection, schedule: Q04DX002 (ip), vehicle: saline 99 % of control

COC(C(OC(C)=O)C(OC(C)=O)C(OC(C)=O)C(COC(C)=O)OC(C)=O)n1cc(C)c(=O)[nH]c1=O (configuration not stated)
inactive: dose: 50.0 mg/kg/injection, schedule: Q01DX001 (ip), vehicle: saline 103 % of control | [8] 97 % of control | [9] 95 % of control | [10] 91 % of control

COc1cccc2c1C(=O)CC2
inactive: dose: 25.0 mg/kg/injection, schedule: Q01DX009 (ip), vehicle: acetone 101 % of control | dose: 50.0 mg/kg/injection, schedule: Q01DX009 (ip), vehicle: acetone 106 % of control | dose: 100.0 mg/kg/injection, schedule: Q01DX009 (ip), vehicle: acetone 103 % of control | [11] 87 % of control

COC(=O)c1cc(C)cc(N)c1C
inactive: [8] 102 % of control | [9] 109 % of control | [10] 104 % of control

c1ccc(-c2cnsc2)cc1
inactive: dose: 200.0 mg/kg/injection, schedule: Q01DX001 (ip), vehicle: carboxymethylcellulose (CMC) 95 % of control | dose: 400.0 mg/kg/injection, schedule: Q01DX001 (ip), vehicle: carboxymethylcellulose (CMC) 100 % of control

CC(=O)Cn1c(=O)oc2ccccc2c1=O
inactive: [12] 102 % of control | [11] 108 % of control | [13] 102 % of control

O=C1OCCC1n1ccc(=O)[nH]c1=O (configuration not stated)
inactive: [1] 111 % of control | [3] 105 % of control | dose: 400.0 mg/kg/injection, schedule: Q01DX009 (ip), vehicle: saline 106 % of control

Cc1ccc(C2OC2(C(=O)c2ccccc2)c2ccccc2)cc1 (configuration not stated)
inactive: dose: 100.0 mg/kg/injection, schedule: Q01DX009 (ip), vehicle: Klucel (hydroxypropylcellulose) (HPC) 106 % of control | dose: 100.0 mg/kg/injection, schedule: Q04DX003 (ip), vehicle: Klucel (hydroxypropylcellulose) (HPC) 96 % of control | dose: 200.0 mg/kg/injection, schedule: Q01DX009 (ip), vehicle: Klucel (hydroxypropylcellulose) (HPC) 108 % of control | dose: 200.0 mg/kg/injection, schedule: Q04DX003 (ip), vehicle: Klucel (hydroxypropylcellulose) (HPC) 104 % of control | dose: 400.0 mg/kg/injection, schedule: Q01DX009 (ip), vehicle: Klucel (hydroxypropylcellulose) (HPC) 92 % of control | dose: 400.0 mg/kg/injection, schedule: Q04DX003 (ip), vehicle: Klucel (hydroxypropylcellulose) (HPC) 98 % of control

C/C(=N\O)C(C)C
inactive: [14] 93 % of control | [4] 100 % of control | [15] 101 % of control | [5] 98 % of control | [16] 98 % of control | [17] 92 % of control

CCOC(=O)CN1C(=O)NC2(CCc3ccccc3C2)C1=O (configuration not stated)
inactive: [18] 98 % of control

CC(C)(C)N=C(N)N[N+](=O)[O-]
inactive: dose: 50.0 mg/kg/injection, schedule: Q04DX002 (ip), vehicle: Klucel (hydroxypropylcellulose) (HPC) 104 % of control | [6] 100 % of control | [7] 104 % of control

Cc1ccc(Cl)cc1NC(=O)Nc1cccc2ccc(O)cc12
inactive: [12] 102 % of control | [14] 95 % of control | [4] 95 % of control and 101 % of control | dose: 100.0 mg/kg/injection, schedule: Q04DX002 (ip), vehicle: saline with Tween-80 102 % of control and 90 % of control | [11] 96 % of control | [15] 97 % of control | [5] 88 % of control and 92 % of control | dose: 200.0 mg/kg/injection, schedule: Q04DX002 (ip), vehicle: saline with Tween-80 95 % of control and 91 % of control | [13] 91 % of control | [16] 101 % of control | [17] 95 % of control and 103 % of control | dose: 400.0 mg/kg/injection, schedule: Q04DX002 (ip), vehicle: saline with Tween-80 87 % of control and 90 % of control | [18] 96 % of control

CSc1ncnc2c1ncn2N1CCCC1COS(=O)(=O)c1ccc(C)cc1 (configuration not stated)
inactive: dose: 100.0 mg/kg/injection, schedule: Q01DX001 (ip), vehicle: DMSO 96 % of control | dose: 200.0 mg/kg/injection, schedule: Q01DX001 (ip), vehicle: DMSO 90 % of control | dose: 400.0 mg/kg/injection, schedule: Q01DX001 (ip), vehicle: DMSO 95 % of control

Nc1ccccc1CSc1nc2nc[nH]c2c(=O)[nH]1
inactive: dose: 5.0 mg/kg/injection, schedule: Q01DX009 (ip), vehicle: Klucel (hydroxypropylcellulose) (HPC) 99 % of control | dose: 10.0 mg/kg/injection, schedule: Q01DX009 (ip), vehicle: Klucel (hydroxypropylcellulose) (HPC) 97 % of control | dose: 20.0 mg/kg/injection, schedule: Q01DX009 (ip), vehicle: Klucel (hydroxypropylcellulose) (HPC) 103 % of control

Cc1ccc(COP(=O)(c2ccccc2)c2ccccc2)cc1
inactive: dose: 66.0 mg/kg/injection, schedule: Q01DX001 (ip), vehicle: Klucel (hydroxypropylcellulose) (HPC) 98 % of control | [19] 93 % of control | [2] 97 % of control | [20] 91 % of control

CCN(CC)CCNCCCS(=O)(=O)c1ccc(NC(C)=O)cc1
inactive: [8] 97 % of control | [9] 97 % of control | [10] 97 % of control

O=C(NCc1ccccc1)NCc1ccccc1
inactive: [19] 112 % of control | [20] 97 % of control | dose: 400.0 mg/kg/injection, schedule: Q01DX001 (ip), vehicle: Klucel (hydroxypropylcellulose) (HPC) 105 % of control

NC(N)=N/N=C/c1ccccc1C(=O)O
inactive: dose: 62.5 mg/kg/injection, schedule: Q01DX Z (ip), vehicle: saline 106 % of control | dose: 125.0 mg/kg/injection, schedule: Q01DX Z (ip), vehicle: saline 106 % of control | dose: 250.0 mg/kg/injection, schedule: Q01DX Z (ip), vehicle: saline 101 % of control | dose: 500.0 mg/kg/injection, schedule: Q01DX Z (ip), vehicle: saline 100 % of control

CCCCCCCC(=O)Nc1cc(C(F)(F)F)ccc1Cl
inactive: [11] 92 % of control | [13] 98 % of control | [18] 87 % of control
